US8586007B2, “Co-polymer stabilizers for hydrofluoroalkane dispersions” (Wayne State University, priority 2007, dated 2013)

Columns and labels:
[1] = Colloidal probe microscopy (CPM): adhesion force (Fad) in liquid HPFP in the presence of surfactants and/or cosolvents; type: physicochemical; details: 298 K
Description: Preparation and Characterization of the Drug-Modified AFM Cantilever (Colloidal Probe). Single salbutamol crystals were glued onto silicon nitride contact-mode cantilevers (NP-20) with the help of an AFM (Pico LE, Molecular Imaging). In brief, the cantilever was first positioned above a tiny drop of epoxy (Epotek 377). The AFM cantilever was then slowly approached toward the epoxy. A tiny amount of it was then carefully transferred onto the AFM tip. A similar procedure was used to attach the drug particle to the AFM tip containing the epoxy. The particle-modified AFM tip was then kept at room temperature for 24 h to allow the complete curing of the epoxy. SEM images of the drug-modified cantilevers were obtained after the adhesion force measurements to verify the integrity and quality of the probe. The spring constant of the drug-modified cantilevers was determined using a module attached to the AFM and the MI Thermal K 1.02 software. Preparation and Characterization of the Drug Crystal Substrate. Salbutamol was first dissolved in ethanol to saturation. The solution was then transferred onto a cover glass previously treated with piranha solution (7:3 v/v H2SO4/H2O2). The system was kept inside a scaled Petri dish. The crystallization process of salbutamol was induced by the controlled evaporation of ethanol. Optical microscopy was used to observe the crystal morphology. The surface topography of the salbutamol crystal was examined by AFM under tapping mode, with a silicon cantilever (BS-Multi 75). Colloidal Probe Microscopy (CPM). The force of adhesion (Fad) between the salbutamol-modified cantilever and a smooth salbutamol crystal substrate was determined by CPM, at 298 K. A fluid cell was used to perform the experiments in liquid HPFP. The procedure adopted here is similar to that used to investigate the effect of other excipients on drug-drug interactions. FIG. 2a is the schematic diagram of a typical force curve obtained during the CPM measurements. The Fad is determined as the product of the spring constant (k) of the drug-modified AFM cantilever and the maximum cantilever deflection (x) during the retraction stage of the force measurement; […]; as schematically shown in FIG. 2a. Several contact points, randomly distributed on the crystal surfaces over a 9 μm×9 μm area, were selected for the measurements. At each contact point, 25 force-distance curves were measured. The tip was moved toward and away from the substrate in a range of 2000 nm and a sweep duration of 2 s. The histograms of the measured Fad were fit to a Gaussian distribution, from which an average Fad and deviation were obtained. The same drug probe was used throughout the measurements to guarantee a constant contact area. Great care was taken to guarantee the integrity of the drug probe. Since the solubility of salbutamol in HPFP is negligible, before each new adhesion force measurement, the drug probe and drug crystal substrate were thoroughly rinsed with HPFP, followed by an Fad test in pure HPFP. […] A second set of completely independent measurements (new probe and crystal substrate) were obtained to assess the reproducibility of the reported trend in Fad.

[2] = Solubility in propellant / solvent; type: physicochemical

CCO [Ethanol]
Fad probe 1 ([1]; no surfactant, cosolvent ethanol 7% (v/v) alone, probe 1): 6.31 ± 0.47 nN | Fad probe 2 ([1]; no surfactant, cosolvent ethanol 7% (v/v) alone): 5.01 ± 0.26 nN

CCCCCCCC/C=C\CCCCCCCC(=O)O [Oleic acid]
Fad probe 1 ([1]; surfactant 1.0 mM with cosolvent ethanol 7% (v/v), probe 1): 1.54 ± 0.35 nN | Fad probe 1 ([1]; surfactant 1.0 mM with cosolvent ethanol 7% (v/v), probe 1, listed as oleic acid): 1.54 nN | Fad probe 2 ([1]; surfactant 1.0 mM with cosolvent ethanol 7% (v/v)): 1.64 ± 0.21 nN

CC(C)(C)NCC(O)c1ccc(O)c(CO)c1 (stereo not shown) [salbutamol]
Solubility in HPFP ([2]; HPFP): negligible | Solubility in ethanol ([2]; ethanol): appreciable solubility
